These results are taken from PubChem BioAssay (NCI).

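Protocol summary: plate cells (96-well), add compound at 5 concentrations, incubate 48 h, interpolate endpoints linearly. The concentration for full growth arrest is given as TGI.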

Among the test systems are HCC-2998 colon; NCI-H460 lung; EKVX NSCLC; UO-31 renal; SN12C renal; NCI-H522 lung; NCI/ADR-RES ovarian; CAKI-1 renal; SK-MEL-28 melanoma; T-47D breast; OVCAR-5 ovarian; U251 CNS.
What all share (assay): NCI-60 cell line screen, 48 h

As to `C=C1C(=O)OC2CC(=C)C3CC=C(C)C3CC12` (centres undefined), the TGI in the assay on HCC-2998 colon is 43.3 µM; in the assay on NCI-H460 lung, above 100 µM; in the assay with EKVX NSCLC, above 100 µM; in the assay with UO-31 renal, 29.3 µM; in the assay with SN12C renal, 31.7 µM; in the assay on NCI-H522 lung it was 36.2 µM. Further, the TGI in the assay on NCI/ADR-RES ovarian was above 100 µM; in the assay on CAKI-1 renal, 28.2 µM; in the assay with SK-MEL-28 melanoma, 77.3 µM; in the assay with T-47D breast it was 37.1 µM; in the assay on OVCAR-5 ovarian, above 100 µM; in the assay on U251 CNS, 29.6 µM.
Take `CC(C)(C)c1cc(OCc2nnc3sc(=S)[nH]n23)c(Cl)cc1OCc1nnc2sc(=S)[nH]n12`: the TGI in the assay with HCC-2998 colon is 65.2 µM; in the assay on NCI-H460 lung, 81.8 µM; in the assay on EKVX NSCLC, 85.4 µM; in the assay on UO-31 renal, 82.4 µM; in the assay with SN12C renal it was above 100 µM; with NCI-H522 lung it was 37.8 µM. Moreover, the TGI with NCI/ADR-RES ovarian was above 100 µM; with CAKI-1 renal it was 80.5 µM; with SK-MEL-28 melanoma, 58.4 µM; in the assay with T-47D breast, 57.7 µM; with OVCAR-5 ovarian it was above 100 µM; in the assay on U251 CNS, 65.2 µM.
For `CC1=CC(C)C(C)N(CCNS(=O)(=O)c2ccc(C)cc2)c2ccccc21` (centres undefined), the TGI in the assay with HCC-2998 colon was 30.2 µM; with NCI-H460 lung it was 19.2 µM; in the assay on EKVX NSCLC, above 31.6 µM; with UO-31 renal, above 31.6 µM; in the assay with SN12C renal, 17.1 µM; in the assay on NCI-H522 lung, 61.1 µM. Further, the TGI was 29.5 µM in the assay with NCI/ADR-RES ovarian; above 31.6 µM in the assay on CAKI-1 renal; 17.9 µM in the assay on SK-MEL-28 melanoma; 22.3 µM with T-47D breast; 31.1 µM in the assay on OVCAR-5 ovarian; 31.7 µM with U251 CNS.
As for `COc1cc(Nc2nnc3n2S(=O)(=O)c2cc(C)c(Cl)cc2S3)cc(OC)c1`, the TGI was above 100 µM in the assay on HCC-2998 colon; above 100 µM in the assay with NCI-H460 lung; above 100 µM in the assay with EKVX NSCLC; above 100 µM in the assay on UO-31 renal; above 100 µM in the assay with SN12C renal; 8.44 µM in the assay with NCI-H522 lung. Moreover, the TGI in the assay on NCI/ADR-RES ovarian is above 100 µM; in the assay on CAKI-1 renal it was 79 µM; with SK-MEL-28 melanoma it was above 100 µM; with T-47D breast it was 44.5 µM; in the assay on OVCAR-5 ovarian, above 100 µM; in the assay on U251 CNS it was 29.2 µM.
Regarding `Cc1ccc(N=NN(C)C(=O)C(C)N)cc1` (centres undefined), the TGI with HCC-2998 colon, in the assay with NCI-H460 lung, with EKVX NSCLC, in the assay with UO-31 renal, in the assay on SN12C renal and with NCI-H522 lung was above 100 µM throughout. Also, the TGI in the assay with NCI/ADR-RES ovarian, in the assay with CAKI-1 renal, with SK-MEL-28 melanoma, in the assay with T-47D breast, in the assay with OVCAR-5 ovarian and in the assay with U251 CNS was above 100 µM throughout.
Regarding `O=C(O)CNn1c(SCC(=O)O)nnc(/C=C/c2c(O)ccc3ccccc23)c1=O`, the TGI in the assay on HCC-2998 colon was above 100 µM; in the assay with NCI-H460 lung it was above 100 µM; in the assay on EKVX NSCLC it was 66.2 µM; in the assay with UO-31 renal, above 100 µM; with SN12C renal, above 100 µM; in the assay with NCI-H522 lung it was above 100 µM. For the same compound, the TGI with NCI/ADR-RES ovarian is 67.9 µM; with CAKI-1 renal, above 100 µM; in the assay on SK-MEL-28 melanoma, above 100 µM; with T-47D breast, above 100 µM; in the assay on OVCAR-5 ovarian, above 100 µM; in the assay on U251 CNS, above 100 µM.
For the compound `CCN(CC)/[N+]([O-])=N/OCOC(C)=O`, the TGI with HCC-2998 colon, in the assay with NCI-H460 lung, in the assay with EKVX NSCLC, in the assay on UO-31 renal, in the assay with SN12C renal and in the assay on NCI-H522 lung was above 100 µM throughout. Moreover, the TGI with NCI/ADR-RES ovarian, in the assay with CAKI-1 renal, in the assay on SK-MEL-28 melanoma, in the assay on T-47D breast, with OVCAR-5 ovarian and in the assay on U251 CNS was above 100 µM throughout.
Take `CCOC(=O)/C=C/[C@H](O)[C@@H](O)/C=C/C(=O)OCC`: the TGI was above 100 µM in the assay with HCC-2998 colon; 43 µM in the assay on NCI-H460 lung; 58.8 µM in the assay with EKVX NSCLC; above 100 µM with UO-31 renal; 85.2 µM with SN12C renal; 39.2 µM with NCI-H522 lung. In addition, the TGI in the assay on NCI/ADR-RES ovarian was above 100 µM; in the assay with CAKI-1 renal, 45.8 µM; in the assay on SK-MEL-28 melanoma it was 44.3 µM; in the assay with T-47D breast it was above 100 µM; in the assay on OVCAR-5 ovarian it was above 100 µM; in the assay on U251 CNS it was above 100 µM.
As to `CC(C)(C)OC/C=C1\C(=O)O[C@H]2C[C@@H](O[Si](C)(C)C(C)(C)C)C[C@@H]12`, the TGI was above 100 µM in the assay with HCC-2998 colon; above 100 µM in the assay with NCI-H460 lung; above 100 µM in the assay with EKVX NSCLC; above 100 µM with UO-31 renal; above 100 µM in the assay with SN12C renal; 90.7 µM in the assay with NCI-H522 lung. Besides, the TGI with NCI/ADR-RES ovarian, in the assay with CAKI-1 renal, in the assay with SK-MEL-28 melanoma, in the assay with T-47D breast, with OVCAR-5 ovarian and with U251 CNS was above 100 µM in each case.
Consider `CCCCCCOc1ccc(C(=O)N(C)O)cc1`, for which the TGI is 99 µM in the assay on HCC-2998 colon; 30 µM with NCI-H460 lung; above 100 µM with EKVX NSCLC; 60.9 µM in the assay with UO-31 renal; above 93.9 µM in the assay with SN12C renal; 90.6 µM in the assay on NCI-H522 lung. Moreover, the TGI in the assay on NCI/ADR-RES ovarian was 57.1 µM; in the assay on CAKI-1 renal, above 91.2 µM; with SK-MEL-28 melanoma, above 100 µM; in the assay with T-47D breast, 99.4 µM; in the assay with OVCAR-5 ovarian it was above 100 µM; in the assay on U251 CNS, above 100 µM.
In the case of `COC(=O)[C@@H](Cc1ccccc1)N1O[C@]12CCCC[C@@H]2NC(=O)OC(C)(C)C` (some centres undefined), the TGI in the assay with HCC-2998 colon is above 100 µM; in the assay with NCI-H460 lung, 90.6 µM; in the assay with EKVX NSCLC, 82.3 µM; in the assay with UO-31 renal, 27.5 µM; in the assay with SN12C renal, above 100 µM; with NCI-H522 lung, 30.4 µM. The TGI with NCI/ADR-RES ovarian was 52.4 µM; in the assay on CAKI-1 renal, 90.4 µM; in the assay with SK-MEL-28 melanoma, 60.7 µM; with T-47D breast, 62.4 µM; in the assay with OVCAR-5 ovarian, 71.7 µM; in the assay with U251 CNS, 77.9 µM.
Consider `NC(=O)/C=c1/c2ccccc2n2nc3ccccc3c12`, for which the TGI was 36.8 µM in the assay on HCC-2998 colon; above 100 µM with NCI-H460 lung; 42.7 µM in the assay with EKVX NSCLC; 77 µM in the assay with UO-31 renal; 40.2 µM in the assay with SN12C renal; 33.2 µM in the assay with NCI-H522 lung. Besides, the TGI in the assay with NCI/ADR-RES ovarian was 50.7 µM; with CAKI-1 renal it was 82.5 µM; in the assay on SK-MEL-28 melanoma, 33.9 µM; in the assay on T-47D breast, above 100 µM; with OVCAR-5 ovarian, 77.8 µM; in the assay with U251 CNS, 29.3 µM.
